# According to a compilation of properties of binary mixtures (doi:10.1016/j.molliq.2020.113127):
# Assay: xn = mol fraction of the nth substance listed
# Settings: 101 kPa
SMILES,"viscosity (298.15 K, x1 = 0.333)","viscosity (303.15 K, x1 = 0.333)","viscosity (308.15 K, x1 = 0.333)","viscosity (313.15 K, x1 = 0.333)","viscosity (318.15 K, x1 = 0.333)","viscosity (323.15 K, x1 = 0.333)","viscosity (313.15 K, x1 = 0.25)","viscosity (318.15 K, x1 = 0.25)","viscosity (328.15 K, x1 = 0.25)","viscosity (333.15 K, x1 = 0.25)"
CC[N+](CC)(CC)CC.[Cl-] + CC(=O)O,34.46 mPa·s,27.81 mPa·s,22.91 mPa·s,19.51 mPa·s,16.53 mPa·s,13.93 mPa·s,,,,
C[P+](c1ccccc1)(c1ccccc1)c1ccccc1.[Br-] + OCCO,,,,,,,53.81 mPa·s,40.74 mPa·s,25.16 mPa·s,20.33 mPa·s
